Assay results: ChEMBL document CHEMBL1154431, “Synthesis of biologically active N-methyl derivatives of amidines and cyclized five-membered products of amidines with oxalyl chloride” (2008)

What was measured:
Assay type in all cases: functional
[1] = system: Rattus norvegicus; experiment: Antiinflammatory activity against carrageenan-induced paw edema in albino rat at 100 mg/kg, po administered 30 mins before carrageenan challenge measured after 1 to 3 hrs
[2] = system: Mus musculus; experiment: Analgesic activity in mouse assessed as decrease in acetic acid-induced writhing at 100 mg/kg, po administered 30 mins before acetic acid challenge measured after 1 hr; parameters: scale not given: the % may be the effect or the level left
[3] = system: Rattus norvegicus; experiment: Antiinflammatory activity against carrageenan-induced paw edema in albino rat at 50 mg/kg, po administered 30 mins before carrageenan challenge measured after 1 to 3 hrs
[4] = system: Mus musculus; experiment: Analgesic activity in mouse assessed as decrease in acetic acid-induced writhing at 50 mg/kg, po administered 30 mins before acetic acid challenge measured after 1 hr; parameters: scale not given: the % may be the effect or the level left
[5] = system: Mus musculus; experiment: Analgesic activity in mouse assessed as decrease in acetic acid-induced writhing at 25 mg/kg, po administered 30 mins before acetic acid challenge measured after 1 hr; parameters: scale not given: the % may be the effect or the level left
[6] = system: Rattus norvegicus; experiment: Antiinflammatory activity against carrageenan-induced paw edema in albino rat at 25 mg/kg, po administered 30 mins before carrageenan challenge measured after 1 to 3 hrs

Row | Compound | Activity [1] | Activity [2] | Activity [3] | Activity [4] | Activity [5] | Activity [6]
1 | C/N=C(/NNS(=O)(=O)c1ccc(C)cc1)c1ccccn1 | 12% | 75% |  |  |  | 
2 | C/N=C(/NNS(=O)(=O)c1ccc(OC)cc1)c1ccccn1 |  |  | 20% | 20% |  | 
3 | COc1ccc(S(=O)(=O)NN2C(=O)C(=O)N=C2c2cnccn2)cc1 |  |  | 13% | 12% |  | 
4 | COc1ccc(S(=O)(=O)NN2C(=O)C(=O)N=C2c2ccncc2)cc1 | 34% | 75% |  |  |  | 
5 | O=C1N=C(c2cnccn2)N(NS(=O)(=O)c2ccccc2)C1=O |  |  | 25% | 30% |  | 
6 | C/N=C(/NNS(=O)(=O)c1ccc(OC)cc1)c1ccncc1 |  |  | 21% | 13% |  | 
7 | COc1ccc(S(=O)(=O)NN2C(=O)C(=O)N=C2c2ccccn2)cc1 |  |  | 20% | 18% |  | 
8 | Cc1ccc(S(=O)(=O)NN2C(=O)C(=O)N=C2c2ccccn2)cc1 |  |  | 31% | 60% |  | 
9 | C/N=C(/NNS(=O)(=O)c1ccc(C)cc1)c1ccncc1 | 56% | 33% | 44% | 17% | 9% | 27%
10 | C/N=C(/NNS(=O)(=O)c1ccccc1)c1cnccn1 |  |  | 11% | 11% |  | 
11 | C/N=C(/NNS(=O)(=O)c1ccccc1)c1ccncc1 |  |  | 16% | 7% |  | 
12 | O=C1N=C(c2ccncc2)N(NS(=O)(=O)c2ccccc2)C1=O |  |  | 37% | 60% |  | 
13 | C/N=C(/NNS(=O)(=O)c1ccc(OC)cc1)c1cnccn1 |  |  | 20% | 16% |  | 
14 | CCCCC1C(=O)N(c2ccccc2)N(c2ccccc2)C1=O [PHENYLBUTAZONE] | 58% | 58% | 37% | 40% | 24% | 19%
